The target of one test is T1, PDE2 (Homo sapiens, UniProt O00408).
T1 construct: PDE2 was isolated from human platelets, provided by Etablissement Français du Sang-Alsace; tissue Etablissement Français du Sang-Alsace; host or cells: human platelets
Nature of the test: Inhibition of PDE2 (radioenzymatic phosphodiesterase assay). The test is classed as biochemical. As for the experimental part: (§1) 2.1.1. Isolation of Phosphodiesterases from Smooth Muscle A 3 g segment of bovine aortic media cut into pieces with scissors was homogenized with an ultra-turrax then a potter glass/glass homogenizer in 7 volumes by weight of buffer A containing a protease inhibitor cocktail (20 mM Tris-HCl, 0.25 M saccharose, 2 mM magnesium acetate, 1 mM dithiothreitol, 5 mM EGTA, 2000 U/ml aprotinin, 10 mg/l leupeptin and 10 mg/l soya trypsic inhibitor). The homogenizate was centrifuged at 105,000 g for 1 hour. The supernatant was loaded on a DEAE-Sephacel column (15×1.6 cm) pre-equilibrated with buffer B (buffer A without the saccharose, EGTA and protease inhibitors). The column was washed until there was no detectable absorption at 280 nm, then eluted with a linear gradient of NaCl (0-0.5 M) in buffer B. 3-ml fractions were collected and enzyme activity was determined under the conditions described hereinbelow to localize the different enzymes PDE1, PDE3, PDE4 and PDE5 which were aliquoted and frozen at −80° C. (Lugnier et al., Biochem. Phamacol., 1986, 35: 1746-1751). PDE2 was isolated from human platelets, provided by Etablissement Français du Sang-Alsace, according to Kameni Tcheudji J F et al., (J. Mol. Biol. 2001; 310: 181-791), and stored until use at −80° C. in small aliquots.
(§2) Cyclic nucleotide phosphodiesterase activity was determined by a radioenzymatic method using tritium-labelled cyclic GMP or AMP (1 μM) as substrate (Lugnier et al., 1986). ^3H-labelled adenosine or guanosine monophosphate formed by hydrolysis of the radiolabelled cyclic nucleotide was then converted to ^3H-labelled adenosine or guanosine in a second reaction with […] in excess. The nucleoside formed was separated from the nucleotides by anion exchange chromatography. Nucleoside radioactivity was determined by liquid scintillation counting. Enzymatic incubations were carried out under conditions allowing no more than 15% hydrolysis of the substrate; each point was performed in duplicate.
The concentration of substance which inhibits enzymatic activity by 50% (IC50) at 1 μM cyclic AMP was calculated by nonlinear regression from the experimental values of hydrolysis rate (Prism, GraphPad).

The next test concerns the target T2, 5-HT transporter (Homo sapiens, UniProt P31645).
T2 construct: expressed in transfected cells; host or cells: HEK-293
Kind of test: Serotonergic transporter binding ([3H]imipramine). Particulars: [3H]imipramine 2 nM, HEK-293 recombinant, read-out: percentage inhibition at 10 μM of control specific binding to the serotonergic transporter. As to the method:
The serotonergic 5-HT transporter was isolated from human recombinant HEK-293 cells according to the method described by Tatsumi et al. (1997), Pharmacological profile of antidepressants and related compounds at human monoamine transporters, Eur. J. Pharmacol., 340: 249-258.
Serotonergic transporter binding was determined by a radioligand method using tritium-labelled imipramine (2 nM) as substrate (Tatsumi et al., 1999). Ligand radioactivity was determined by liquid scintillation counting. Ligand incubations were carried out for thirty minutes at 22° C. The experiment was conducted in duplicate.
The specific ligand binding to the serotonergic transporter was defined as the difference between the total binding and the non specific binding determined in presence of an excess of unlabelled ligand. The results obtained are presented in Table 3 hereinbelow and are expressed as percent of control specific binding and as a percent inhibition of control specific binding obtained in presence of 10 μM of substance.

In another test the test system is PDE4. Kind of test: Selectivity: inhibition of PDE4 (radioenzymatic assay). Type of test: biochemical, bovine. Particulars: Table 2; for PDE4 percentage inhibition at 10 μM: 10 μM compound. As to the method: as §1, §2
(§3) The activity of the compounds was evaluated on other phosphodiesterase isoforms, particularly basal state or calmodulin-activated PDE1 from vascular smooth muscle, PDE3, PDE4 and PDE5 from vascular smooth muscle. The results obtained are presented in Tables 1 and 2 hereinbelow and are expressed as the percentage inhibition of enzymatic activity produced by […] of the test compound.

The next test deals with T3, PDE3 (Bos taurus, UniProt A0A3Q1M1E8).
T3 sequence (A0A3Q1M1E8 1-1126): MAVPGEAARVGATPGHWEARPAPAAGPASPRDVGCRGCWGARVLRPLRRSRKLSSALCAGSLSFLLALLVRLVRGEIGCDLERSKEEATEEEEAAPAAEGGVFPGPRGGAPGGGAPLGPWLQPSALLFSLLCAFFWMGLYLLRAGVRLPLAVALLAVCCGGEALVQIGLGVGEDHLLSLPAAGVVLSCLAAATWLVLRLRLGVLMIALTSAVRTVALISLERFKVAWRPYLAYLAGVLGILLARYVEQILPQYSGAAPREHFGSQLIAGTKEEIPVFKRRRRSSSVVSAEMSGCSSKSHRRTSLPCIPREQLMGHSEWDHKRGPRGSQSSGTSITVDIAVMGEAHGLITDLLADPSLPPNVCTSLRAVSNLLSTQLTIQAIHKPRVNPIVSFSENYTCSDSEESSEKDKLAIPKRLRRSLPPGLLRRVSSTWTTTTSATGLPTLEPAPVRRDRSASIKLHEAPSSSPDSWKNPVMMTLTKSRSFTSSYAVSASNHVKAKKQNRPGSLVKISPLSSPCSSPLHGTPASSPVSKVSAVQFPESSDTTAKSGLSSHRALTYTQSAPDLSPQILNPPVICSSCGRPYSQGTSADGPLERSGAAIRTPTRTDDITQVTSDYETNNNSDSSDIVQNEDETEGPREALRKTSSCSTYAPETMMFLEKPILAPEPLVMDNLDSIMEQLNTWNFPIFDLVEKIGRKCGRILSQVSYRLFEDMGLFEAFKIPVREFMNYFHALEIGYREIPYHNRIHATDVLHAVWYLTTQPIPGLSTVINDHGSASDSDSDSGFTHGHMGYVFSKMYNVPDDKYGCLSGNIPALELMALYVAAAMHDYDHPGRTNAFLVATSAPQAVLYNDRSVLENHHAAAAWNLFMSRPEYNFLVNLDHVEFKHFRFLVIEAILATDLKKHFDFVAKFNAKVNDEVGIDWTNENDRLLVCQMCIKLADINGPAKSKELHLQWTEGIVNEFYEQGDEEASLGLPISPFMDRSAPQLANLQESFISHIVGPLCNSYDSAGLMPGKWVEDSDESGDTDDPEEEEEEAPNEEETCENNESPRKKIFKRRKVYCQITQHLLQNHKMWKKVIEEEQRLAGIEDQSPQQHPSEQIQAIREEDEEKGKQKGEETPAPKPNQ
Kind of test: Selectivity: inhibition of PDE3 (radioenzymatic assay). Type of test: biochemical, bovine. Conditions: Table 2; 10 μM compound; read-out: PDE3 percentage inhibition at 10 μM. As to the method: as §1, with “PDE2 was isolated from human platelets, provided by Etablissement Français du Sang-Alsace, according to Kameni Tcheudji J F et al., (J. Mol. Biol. 2001; 310: 181-791), and stored until use at −80° C. in small aliquots.” left out
Cyclic nucleotide phosphodiesterase activity was determined by a radioenzymatic method using tritium-labelled cyclic GMP or AMP (1 μM) as substrate (Lugnier et al., 1986). ^3H-labelled adenosine or guanosine monophosphate formed by hydrolysis of the radiolabelled cyclic nucleotide was then converted to ^3H-labelled adenosine or guanosine in a second reaction with one nucleotidase in excess. […] Nucleoside radioactivity was determined by liquid scintillation counting. […]
as §3

In another test the test system is σ receptors. Nature of the test: Isolated organ bioassay, field-stimulated vas deferens: test for antagonist activity. Also noted: species or system guinea pig. Particulars: for Response to (+)SKF-10,047 (1.0 10^−4 M) in the presence of the compound: mean, n=2. As for the experimental part:
Segments of guinea pig vas deferens were suspended in 20-ml organ baths containing an oxygenated (95% O2 and 5% CO2) and pre-warmed (37° C.) physiological salt solution of the following composition (in mM): NaCl 118.0, KCl 4.7, MgSO4 1.2, CaCl2 2.5, KH2PO4 1.2, NaHCO3 25.0 and glucose 11.0 (pH 7.4). Yohimbine (1 μM), (−) sulpiride (1 μM), atropine (1 μM) and naloxone (1 μM) were also present throughout the experiments to block the α2-adrenergic, dopamine D2, muscarinic and opioid receptors, respectively. The tissues were connected to force transducers for isometric tension recordings. They were stretched to a resting tension of 0.5 g, allowed to equilibrate for at least 30 min during which time they were washed repeatedly and the tension readjusted. Thereafter, they were stimulated electrically using a constant current stimulator.
The tissues were exposed to a submaximal concentration of the reference agonist (+) SKF-10047 (100 μM) to obtain a control response. After stabilization of the (+) SKF-10047-induced response, increasing concentrations of substance or the reference antagonist rimcazole were added cumulatively. Each concentration was left in contact with the tissues until a stable response was obtained or for a maximum of 15 min. If it occurred, an inhibition of the (+) SKF-10047-induced increase in twitch contraction amplitude by substance indicated an antagonist activity at the σ receptors.
The parameter measured was the maximum change in the twitch contraction amplitude induced by each compound concentration. The results are expressed as a percent variation of the control twitch contraction amplitude (mean values). The effects of substance tested at 1.0 10^−6 M, 3.0 10^−6 M and 1.0 10^−5 M for agonist and antagonist activities at the σ receptors in the guinea pig vas deferens bioassay are summarized in Tables 6-7 where those of the reference compounds are also reported.

[1] abbreviates: read-out: PDE2 percentage inhibition at 10 μM, Table 1, 10 μM compound, 1 μM cyclic AMP.
Setting [2] is: Table 1, 10 μM compound, 1 μM cyclic AMP, read-out: PDE2 percentage inhibition at 10 μM.

These results are taken from patent US20090215752A1, “Compounds, preparation and therapeutic use thereof” (priority 2005, published 2009).

The IC50 is the midpoint of a concentration-inhibition curve. What is called inhibition is the drop in the measured response relative to a control, in per cent.

Where two headings read alike, the source gives them in different places.

T2 sequence (P31645 whole entry): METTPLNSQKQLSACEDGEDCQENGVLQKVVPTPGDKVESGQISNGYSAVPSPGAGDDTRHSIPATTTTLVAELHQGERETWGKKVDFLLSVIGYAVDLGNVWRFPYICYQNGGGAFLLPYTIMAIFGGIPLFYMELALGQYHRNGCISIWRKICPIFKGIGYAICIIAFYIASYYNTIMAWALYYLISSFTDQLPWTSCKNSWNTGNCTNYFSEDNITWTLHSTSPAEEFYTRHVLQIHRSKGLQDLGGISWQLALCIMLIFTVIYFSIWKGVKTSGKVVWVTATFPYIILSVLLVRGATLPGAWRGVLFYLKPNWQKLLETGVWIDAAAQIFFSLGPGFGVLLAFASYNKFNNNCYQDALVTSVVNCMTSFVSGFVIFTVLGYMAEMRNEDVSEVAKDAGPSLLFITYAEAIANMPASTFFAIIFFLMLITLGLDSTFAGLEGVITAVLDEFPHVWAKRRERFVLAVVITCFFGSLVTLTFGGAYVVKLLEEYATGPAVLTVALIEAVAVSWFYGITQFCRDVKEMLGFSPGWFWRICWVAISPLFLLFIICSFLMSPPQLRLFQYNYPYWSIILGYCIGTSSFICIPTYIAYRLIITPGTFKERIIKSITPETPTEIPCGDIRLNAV
T1 sequence (O00408 whole entry): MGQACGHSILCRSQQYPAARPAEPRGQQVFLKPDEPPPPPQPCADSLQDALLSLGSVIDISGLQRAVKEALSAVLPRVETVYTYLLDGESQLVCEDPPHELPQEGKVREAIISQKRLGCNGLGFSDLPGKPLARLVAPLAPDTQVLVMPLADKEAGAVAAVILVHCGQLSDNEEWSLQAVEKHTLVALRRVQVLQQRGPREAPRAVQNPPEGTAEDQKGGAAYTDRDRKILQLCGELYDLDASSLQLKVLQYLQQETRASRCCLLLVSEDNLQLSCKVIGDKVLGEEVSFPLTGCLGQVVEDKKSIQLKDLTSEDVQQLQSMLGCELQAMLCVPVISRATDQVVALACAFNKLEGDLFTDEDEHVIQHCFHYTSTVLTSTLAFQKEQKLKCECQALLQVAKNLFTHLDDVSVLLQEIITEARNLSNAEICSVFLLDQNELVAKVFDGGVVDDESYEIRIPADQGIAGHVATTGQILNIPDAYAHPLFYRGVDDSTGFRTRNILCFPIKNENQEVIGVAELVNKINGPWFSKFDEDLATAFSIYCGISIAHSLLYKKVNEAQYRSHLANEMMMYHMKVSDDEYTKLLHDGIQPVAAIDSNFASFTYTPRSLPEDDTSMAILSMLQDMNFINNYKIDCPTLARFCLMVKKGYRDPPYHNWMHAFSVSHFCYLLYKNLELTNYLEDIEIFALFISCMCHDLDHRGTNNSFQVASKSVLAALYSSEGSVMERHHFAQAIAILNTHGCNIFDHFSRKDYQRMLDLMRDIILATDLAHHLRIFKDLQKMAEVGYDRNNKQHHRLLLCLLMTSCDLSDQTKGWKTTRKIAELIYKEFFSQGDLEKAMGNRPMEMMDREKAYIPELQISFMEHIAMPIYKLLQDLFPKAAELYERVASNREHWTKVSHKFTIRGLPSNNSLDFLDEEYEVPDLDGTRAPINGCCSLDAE

`COc1cc2c(c(OC)c1-c1ccccc1)C(c1cccc(C#N)c1)=NCC(=O)N2` [Compound 1, 3-(6,8-Dimethoxy-2-oxo-7-phenyl-2,3-dihydro-1H-benzo[e][1,4]diazepin-5-yl)-benzonitrile] registered an IC50 on PDE2 of 3000 nM. For the same compound, the inhibition at 10 µM worked out at 9% on PDE2 (setting [1]); 9% at PDE2 (read-out: PDE2 percentage inhibition at 10 μM, Table 2, 10 μM compound); 5% at 5-HT transporter. The “PDE4 percentage inhibition at 10 μM” value with PDE4 amounted to 43.3%.
With `COc1cc2c(c(OC)c1-c1ccc(Cl)cc1)C(c1cccc(C#N)c1)=NCC(=O)N2` [Compound 2, 3-[7-(4-Chloro-phenyl)-6,8-dimethoxy-2-oxo-2,3-dihydro-1H-benzo[e][1,4]diazepin-5-yl]-benzonitrile], the IC50 at PDE2 was 730 nM. The inhibition at 10 µM at PDE2 (setting [2]) is 93%; at 5-HT transporter it was 12%. The “PDE4 percentage inhibition at 10 μM” value with PDE4 amounted to 58%.
`COc1cc2c(c(OC)c1-c1ccccc1)C(c1cccc(C#N)c1)=NCC(=O)N2C` [Compound 6, 3-(6,8-Dimethoxy-1-methyl-2-oxo-7-phenyl-2,3-dihydro-1H-benzo[e][1,4]diazepin-5-yl)-benzonitrile] gave an IC50 on PDE2 of 1800 nM. The inhibition at 10 µM came out at 80% on PDE2 (setting [2]) and 40% on PDE3. Besides, the “PDE4 percentage inhibition at 10 μM” value in the test on PDE4 stood at 37%.
Turning to `COc1cc2c(c(OC)c1-c1ccc(Cl)cc1)C(c1cccc(C#N)c1)=NCC(=O)N2C` [Compound 7, 3-[7-(4-Chloro-phenyl)-6,8-dimethoxy-1-methyl-2-oxo-2,3-dihydro-1H-benzo[e][1,4]diazepin-5-yl]-benzonitrile], it took 4600 nM to reach half-maximal inhibition against PDE2 (IC50). Further, the inhibition at 10 µM came out at 61% on PDE2 (setting [2]) and 16% on 5-HT transporter. In addition, in the test with PDE4, the “PDE4 percentage inhibition at 10 μM” value is 41%.
For the compound `COc1cc2c(c(OC)c1-c1cccnc1)C(c1cccc(C#N)c1)=NCC(=O)N2C` [Compound 8, 3-(6,8-Dimethoxy-1-methyl-2-oxo-7-pyridin-3-yl-2,3-dihydro-1H-benzo[e][1,4]diazepin-5-yl)-benzonitrile], the inhibition at 10 µM on PDE2 (setting [1]) is 56%; on 5-HT transporter it was 8%.
As for `COc1cc2c(c(OC)c1-c1ccccc1)C(c1ccccc1)=NCC(=O)N2C` [Compound 9, 6,8-Dimethoxy-1-methyl-5,7-diphenyl-1,3-dihydro-benzo[e][1,4]diazepin-2-one], the inhibition at 10 µM at PDE2 (setting [2]) is 71%; on 5-HT transporter, 1%.
In the case of `COc1cc2c(c(OC)c1-c1ccc(Cl)cc1)C(c1cccc(C(N)=O)c1)=NCC(=O)N2C` [Compound 18], the inhibition at 10 µM at PDE2 (setting [2]) was 98%; at 5-HT transporter, 0%. The IC50 worked out at 300 nM on PDE2 (Table 1, value in square brackets, 1 μM cyclic AMP, read-out: PDE2 IC50) and 6500 nM with PDE4 (value in square brackets). Besides, the “PDE4 percentage inhibition at 10 μM” value with PDE4 stood at 66%.
Turning to `COc1cc2c(c(OC)c1-c1cccnc1)C(c1cccc(C(N)=O)c1)=NCC(=O)N2` [Compound 20, 3-(6,8-Dimethoxy-2-oxo-7-pyridin-3-yl-2,3-dihydro-1H-benzo[e][1,4]diazepin-5-yl)-benzamide], at PDE2 (Table 1, 10 μM compound, 1 μM cyclic AMP), the “PDE2 percentage inhibition at 10 μM” value came out at 68%. Besides, on 5-HT transporter, the inhibition at 10 µM stood at 16%.
For the compound `C[C@@H]1CN(CCCn2c3ccccc3c3ccccc32)C[C@H](C)N1` [rimcazole], the “Response to (+)SKF-10,047 (1.0 10^−4 M) in the presence of the compound” value with σ receptors (compound 1.0 10^−6 M) is reported as “+111%”; with σ receptors (compound 3.0 10^−6 M), “+52%”; with σ receptors (third (highest) concentration, printed 1.0 10^−6 M), −12%. Moreover, in the test on σ receptors (field-stimulated guinea pig vas deferens), the “Effect on the (+) SKF 10,047-induced enhancement of twitch contraction amplitude (in words)” value is reported as “inhibited”.
